Measured values published in ChEMBL document CHEMBL4680222, “Sensitive fluorogenic substrates for sirtuin deacylase inhibitor discovery” (Eur J Med Chem, 2020).
Where a SMILES comes first, the peptide text is derived from it. The star is where a group is joined. AMC = Cc1cc(=O)oc2cc(N*)ccc12; Decanoyl = CCCCCCCCCC(=O)*

Columns and labels:
[1] = target: T1, NAD-dependent protein deacetylase sirtuin-7 (Homo sapiens) (UniProt Q9NRC8); assay: Substrate activity at human N-terminal His-tagged SIRT7 (68 to 354 residues) expressed in Escherichia coli at 5 uM measured after 2 hrs in presence of NAD+ and trypsin by fluorescence assay
T1 sequence (whole entry): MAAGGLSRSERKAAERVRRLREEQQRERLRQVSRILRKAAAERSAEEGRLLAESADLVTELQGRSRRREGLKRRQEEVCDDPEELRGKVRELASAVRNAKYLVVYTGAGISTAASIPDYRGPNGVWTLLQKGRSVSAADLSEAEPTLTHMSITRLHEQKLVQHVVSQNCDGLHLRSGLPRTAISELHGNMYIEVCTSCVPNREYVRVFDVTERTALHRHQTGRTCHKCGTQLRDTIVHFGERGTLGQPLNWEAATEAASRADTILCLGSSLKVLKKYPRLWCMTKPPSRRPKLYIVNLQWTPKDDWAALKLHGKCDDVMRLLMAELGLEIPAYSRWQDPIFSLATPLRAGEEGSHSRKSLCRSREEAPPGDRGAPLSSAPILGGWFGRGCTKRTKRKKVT

[2] = target: T2, NAD-dependent protein deacetylase sirtuin-3, mitochondrial (Homo sapiens) (UniProt Q9NTG7); assay: Substrate activity at human N-terminal His-tagged SIRT3 (122 to 391 residues) expressed in Escherichia coli at 5 uM measured after 2 hrs in presence of NAD+ and trypsin by fluorescence assay
T2 sequence (whole entry): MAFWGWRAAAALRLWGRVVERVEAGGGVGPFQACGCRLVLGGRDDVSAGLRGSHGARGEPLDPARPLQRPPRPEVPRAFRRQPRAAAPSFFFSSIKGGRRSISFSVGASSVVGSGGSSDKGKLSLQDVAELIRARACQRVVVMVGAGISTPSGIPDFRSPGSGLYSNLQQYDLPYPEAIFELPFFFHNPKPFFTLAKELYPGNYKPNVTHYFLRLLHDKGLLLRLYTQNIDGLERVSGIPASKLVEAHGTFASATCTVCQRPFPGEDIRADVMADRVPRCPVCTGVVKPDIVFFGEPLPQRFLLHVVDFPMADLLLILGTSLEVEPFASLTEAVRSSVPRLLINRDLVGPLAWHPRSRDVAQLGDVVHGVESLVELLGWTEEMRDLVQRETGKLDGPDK

[3] = target: NAD-dependent protein deacylase sirtuin-6 (Homo sapiens) (UniProt Q8N6T7); assay: Substrate activity at human N-terminal His-tagged SIRT6 (1 to 355 residues) expressed in Escherichia coli at 5 uM measured after 2 hrs in presence of NAD+ and trypsin by fluorescence assay
Sequence of NAD-dependent protein deacylase sirtuin-6 (Homo sapiens) (Q8N6T7 whole entry, the tested form may be a part): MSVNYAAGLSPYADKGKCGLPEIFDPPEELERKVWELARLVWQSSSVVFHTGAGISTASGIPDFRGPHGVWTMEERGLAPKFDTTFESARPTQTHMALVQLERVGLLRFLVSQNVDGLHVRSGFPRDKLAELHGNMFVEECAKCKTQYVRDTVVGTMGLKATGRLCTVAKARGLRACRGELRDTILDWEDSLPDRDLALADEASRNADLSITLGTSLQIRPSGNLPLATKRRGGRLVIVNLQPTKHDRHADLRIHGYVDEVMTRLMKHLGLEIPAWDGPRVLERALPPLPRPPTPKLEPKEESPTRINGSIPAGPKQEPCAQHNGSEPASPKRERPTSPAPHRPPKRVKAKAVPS

[4] = target: NAD-dependent protein deacylase sirtuin-5, mitochondrial (Homo sapiens) (UniProt Q9NXA8); assay: Substrate activity at human N-terminal His-tagged SIRT5 (34 to 302 residues) expressed in Escherichia coli at 50 uM measured after 2 hrs in presence of NAD+ and trypsin by fluorescence assay
Sequence of NAD-dependent protein deacylase sirtuin-5, mitochondrial (Homo sapiens) (Q9NXA8 37-310 limits assumed): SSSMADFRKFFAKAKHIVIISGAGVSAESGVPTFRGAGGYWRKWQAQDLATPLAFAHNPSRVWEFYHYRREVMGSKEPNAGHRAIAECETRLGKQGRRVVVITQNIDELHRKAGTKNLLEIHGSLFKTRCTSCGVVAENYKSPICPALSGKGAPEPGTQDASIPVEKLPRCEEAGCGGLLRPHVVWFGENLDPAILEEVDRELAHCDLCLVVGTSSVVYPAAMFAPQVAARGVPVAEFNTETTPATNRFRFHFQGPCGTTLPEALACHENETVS

[5] = target: T3, NAD-dependent protein deacetylase sirtuin-2 (Homo sapiens) (UniProt Q8IXJ6); assay: Substrate activity at human N-terminal His-tagged SIRT2 (56 to 356 residues) expressed in Escherichia coli at 0.5 uM measured after 2 hrs in presence of NAD+ and trypsin by fluorescence assay
T3 sequence (whole entry): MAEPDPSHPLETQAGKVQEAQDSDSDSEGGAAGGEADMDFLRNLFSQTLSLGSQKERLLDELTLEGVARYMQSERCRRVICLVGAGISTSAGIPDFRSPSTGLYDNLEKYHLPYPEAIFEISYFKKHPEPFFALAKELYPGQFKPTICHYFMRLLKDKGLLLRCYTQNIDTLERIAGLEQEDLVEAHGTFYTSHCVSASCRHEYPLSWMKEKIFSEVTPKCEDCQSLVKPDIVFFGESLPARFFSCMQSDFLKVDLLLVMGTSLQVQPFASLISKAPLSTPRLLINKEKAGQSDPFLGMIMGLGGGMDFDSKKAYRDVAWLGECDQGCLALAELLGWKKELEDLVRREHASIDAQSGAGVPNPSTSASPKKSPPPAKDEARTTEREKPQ

[6] = target: NAD-dependent protein deacylase sirtuin-6 (Homo sapiens) (UniProt Q8N6T7); assay: Substrate activity at human N-terminal His-tagged SIRT6 (1 to 355 residues) expressed in Escherichia coli at 0.5 uM measured after 2 hrs in presence of NAD+ and trypsin by fluorescence assay
[7] = target: T2, NAD-dependent protein deacetylase sirtuin-3, mitochondrial (Homo sapiens); assay: Substrate activity at human N-terminal His-tagged SIRT3 (122 to 391 residues) expressed in Escherichia coli at 0.5 uM measured after 2 hrs in presence of NAD+ and trypsin by fluorescence assay
[8] = target: T4, NAD-dependent protein deacetylase sirtuin-1 (Homo sapiens) (UniProt Q96EB6); assay: Substrate activity at human N-terminal His-tagged SIRT1 (183 to 664 residues) expressed in Escherichia coli at 0.5 uM measured after 2 hrs in presence of NAD+ and trypsin by fluorescence assay
T4 sequence (whole entry): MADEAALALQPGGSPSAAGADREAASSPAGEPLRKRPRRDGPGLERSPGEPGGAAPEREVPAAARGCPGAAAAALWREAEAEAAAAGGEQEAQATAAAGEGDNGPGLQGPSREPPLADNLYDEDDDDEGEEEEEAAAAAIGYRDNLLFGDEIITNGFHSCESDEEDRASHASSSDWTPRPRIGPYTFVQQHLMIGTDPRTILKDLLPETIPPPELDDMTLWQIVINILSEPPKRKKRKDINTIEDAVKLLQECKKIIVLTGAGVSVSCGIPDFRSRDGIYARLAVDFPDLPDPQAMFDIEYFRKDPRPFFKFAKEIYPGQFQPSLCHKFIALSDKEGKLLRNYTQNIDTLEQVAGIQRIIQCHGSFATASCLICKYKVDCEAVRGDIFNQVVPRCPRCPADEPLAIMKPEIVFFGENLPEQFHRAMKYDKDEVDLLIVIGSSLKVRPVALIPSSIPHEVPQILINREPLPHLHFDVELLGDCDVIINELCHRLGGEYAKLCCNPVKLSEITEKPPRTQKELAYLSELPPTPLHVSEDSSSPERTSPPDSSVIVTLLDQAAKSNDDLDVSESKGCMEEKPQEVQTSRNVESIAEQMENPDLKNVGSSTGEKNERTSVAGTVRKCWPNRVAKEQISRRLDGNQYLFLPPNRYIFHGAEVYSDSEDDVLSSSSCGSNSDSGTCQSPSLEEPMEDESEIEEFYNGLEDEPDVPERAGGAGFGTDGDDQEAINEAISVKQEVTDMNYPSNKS

[9] = target: NAD-dependent protein deacylase sirtuin-5, mitochondrial (Homo sapiens) (UniProt Q9NXA8); assay: Substrate activity at human N-terminal His-tagged SIRT5 (34 to 302 residues) expressed in Escherichia coli at 5 uM measured after 2 hrs in presence of NAD+ and trypsin by fluorescence assay
[10] = target: T2, NAD-dependent protein deacetylase sirtuin-3, mitochondrial (Homo sapiens); assay: Substrate activity at human N-terminal His-tagged SIRT3 (122 to 391 residues) expressed in Escherichia coli at 50 uM measured after 2 hrs in presence of NAD+ and trypsin by fluorescence assay
[11] = target: T1, NAD-dependent protein deacetylase sirtuin-7 (Homo sapiens); assay: Substrate activity at human N-terminal His-tagged SIRT7 (68 to 354 residues) expressed in Escherichia coli at 50 uM measured after 2 hrs in presence of NAD+ and trypsin by fluorescence assay
[12] = target: T4, NAD-dependent protein deacetylase sirtuin-1 (Homo sapiens); assay: Substrate activity at human N-terminal His-tagged SIRT1 (183 to 664 residues) expressed in Escherichia coli at 5 uM measured after 2 hrs in presence of NAD+ and trypsin by fluorescence assay
[13] = target: T3, NAD-dependent protein deacetylase sirtuin-2 (Homo sapiens); assay: Substrate activity at human N-terminal His-tagged SIRT2 (56 to 356 residues) expressed in Escherichia coli at 50 uM measured after 2 hrs in presence of NAD+ and trypsin by fluorescence assay
[14] = target: NAD-dependent protein deacylase sirtuin-5, mitochondrial (Homo sapiens) (UniProt Q9NXA8); assay: Substrate activity at human N-terminal His-tagged SIRT5 (34 to 302 residues) expressed in Escherichia coli at 0.5 uM measured after 2 hrs in presence of NAD+ and trypsin by fluorescence assay
[15] = target: T4, NAD-dependent protein deacetylase sirtuin-1 (Homo sapiens); assay: Substrate activity at human N-terminal His-tagged SIRT1 (183 to 664 residues) expressed in Escherichia coli at 50 uM measured after 2 hrs in presence of NAD+ and trypsin by fluorescence assay
[16] = target: T3, NAD-dependent protein deacetylase sirtuin-2 (Homo sapiens); assay: Substrate activity at human N-terminal His-tagged SIRT2 (56 to 356 residues) expressed in Escherichia coli at 5 uM measured after 2 hrs in presence of NAD+ and trypsin by fluorescence assay
[17] = target: T1, NAD-dependent protein deacetylase sirtuin-7 (Homo sapiens); assay: Substrate activity at human N-terminal His-tagged SIRT7 (68 to 354 residues) expressed in Escherichia coli at 0.5 uM measured after 2 hrs in presence of NAD+ and trypsin by fluorescence assay
[18] = target: NAD-dependent protein deacylase sirtuin-6 (Homo sapiens) (UniProt Q8N6T7); assay: Substrate activity at human N-terminal His-tagged SIRT6 (1 to 355 residues) expressed in Escherichia coli at 50 uM measured after 2 hrs in presence of NAD+ and trypsin by fluorescence assay

Row | SMILES | Activity [1] [RFU] | Activity [2] [RFU] | Activity [3] [RFU] | Activity [4] [RFU] | Activity [5] [RFU] | Activity [6] [RFU] | Activity [7] [RFU] | Activity [8] [RFU] | Activity [9] [RFU] | Activity [10] [RFU] | Activity [11] [RFU] | Activity [12] [RFU] | Activity [13] [RFU] | Activity [14] [RFU] | Activity [15] [RFU] | Activity [16] [RFU] | Activity [17] [RFU] | Activity [18] [RFU]
1 | CC(=O)NCCCC[C@H](NC(=O)[C@H](CCCCN)NC(=O)[C@H](Cc1cnc[nH]1)NC(=O)[C@H](CCCNC(=N)N)NC(C)=O)C(=O)Nc1ccc2c(C)cc(=O)oc2c1 (Ac-RHKK(Ac)-{AMC}) | 0.33 | 0.38 | 0.38 | 0.61 | 0.37 | 0.5 | 0.28 | 0.37 | 0.3 | 1.61 | 0.43 | 1.13 | 2.64 | 0.37 | 5.22 | 0.73 | 0.39 | 0.43
2 | CCCCCCCCCC(=O)NCCCC[C@H](NC(=O)[C@H](CCCCN)NC(=O)[C@@H]1CCCN1C(=O)[C@H](CC(N)=O)NC(C)=O)C(=O)Nc1ccc2c(C)cc(=O)oc2c1 (Ac-NPKK(Decanoyl)-{AMC}) | 0.49 | 0.79 | 0.42 | 1.99 | 0.29 | 0.39 | 0.51 | 0.29 | 0.34 | 3.19 | 1.32 | 0.76 | 5.3 | 0.31 | 2.87 | 1.18 | 0.29 | 1.32
3 | CC(=O)NCCCC[C@H](NC(=O)[C@H](CO)NC(=O)[C@H](Cc1ccccc1)NC(=O)[C@H](CC(=O)O)NC(C)=O)C(=O)Nc1ccc2c(C)cc(=O)oc2c1 (Ac-DFSK(Ac)-{AMC}) | 0.65 | 1.29 | 0.36 | 0.81 | 0.31 | 0.48 | 0.32 | 0.31 | 0.29 | 7.07 | 0.58 | 3.38 | 6.75 | 0.26 | 21.2 | 1.13 | 0.39 | 0.58
4 | CCCCCCCCCC(=O)NCCCC[C@H](NC(=O)[C@H](CCCNC(=N)N)NC(=O)[C@H](C)NC(=O)[C@@H](NC(C)=O)[C@@H](C)O)C(=O)Nc1ccc2c(C)cc(=O)oc2c1 (Ac-TARK(Decanoyl)-{AMC}) | 0.35 | 0.4 | 0.38 | 1.38 | 0.25 | 0.48 | 0.26 | 0.25 | 0.28 | 1.08 | 0.79 | 0.46 | 1.94 | 0.26 | 1.43 | 0.65 | 0.35 | 0.79
5 | CC(=O)NCCCC[C@H](NC(=O)[C@H](CC(C)C)NC(=O)[C@H](CCCCN)NC(=O)[C@H](Cc1ccc(O)cc1)NC(C)=O)C(=O)Nc1ccc2c(C)cc(=O)oc2c1 (Ac-YKLK(Ac)-{AMC}) | 1.09 | 2.28 | 0.39 | 1.29 | 0.52 | 0.5 | 0.54 | 0.52 | 0.31 | 9.82 | 0.97 | 6.39 | 25.2 | 0.24 | 33 | 3.84 | 0.31 | 0.97
